Measured values taken from patent US10519154B2, “7-substituted 1-pyridyl-naphthyridine-3-carboxylic acid amides and use thereof” (Bayer Pharma Aktiengesellschaft, priority 2016, dated 2019).

Biological target: T1, human M2 receptor (Homo sapiens, UniProt P08172)
T1 sequence (P08172 1-466): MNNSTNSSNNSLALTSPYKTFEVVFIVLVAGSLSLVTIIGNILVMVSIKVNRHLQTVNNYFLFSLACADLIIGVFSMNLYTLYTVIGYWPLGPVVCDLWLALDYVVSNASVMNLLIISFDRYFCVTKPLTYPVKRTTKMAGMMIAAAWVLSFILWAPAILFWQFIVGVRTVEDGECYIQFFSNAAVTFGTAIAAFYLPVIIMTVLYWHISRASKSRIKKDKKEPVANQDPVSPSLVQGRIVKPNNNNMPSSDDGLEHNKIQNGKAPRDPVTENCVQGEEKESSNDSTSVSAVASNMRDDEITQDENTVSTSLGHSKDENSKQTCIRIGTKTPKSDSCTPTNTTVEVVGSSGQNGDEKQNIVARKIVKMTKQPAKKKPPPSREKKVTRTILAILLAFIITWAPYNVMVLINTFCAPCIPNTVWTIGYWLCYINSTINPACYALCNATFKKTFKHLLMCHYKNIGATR
Assay: Functional M2-GIRK1/4 activation test: allosteric potency (EC50) and efficiency
Details: for EC50: Receptor activity EC50, CHO-DUKX-M2-GIRK cells, acetylcholine at EC20, in some cases mean of two or more determinations; for Emax: read-out: Efficiency, boosting of the acetylcholine effect at EC20 acetylcholine concentration

| SMILES | EC50 | Emax (CHO-DUKX-M2-GIRK cells) | Efficiency (boosting of the acetylcholine effect at EC20 acetylcholine concentration, CHO-DUKX-M2-GIRK cells) |
| --- | --- | --- | --- |
| CC1C(=O)N(c2ccc3c(=O)c(C(=O)N[C@@H](C4CC4)C(F)(F)F)cn(-c4ncc(F)cc4F)c3n2)CC1O (single isomer, unassigned) [Example 105] | 0.098 µM | 100% | – |
| CCC(NC(=O)c1cn(-c2ncc(F)cc2F)c2nc(N3C[C@@H](O)[C@H](O)C3)ccc2c1=O)C(F)(F)C(F)(F)F (single isomer, unassigned) [Example 96] | 0.068 µM | 100% | – |
| CC[C@@H](NC(=O)c1cn(-c2ncccc2F)c2nc(N3CC4CC4(O)C3)ccc2c1=O)C(F)(F)F (mixture of isomers) [Example 134, 1-(3-Fluoropyridin-2-yl)-7-[1-hydroxy-3-azabicyclo[3.1.0]hex-3-yl]-4-oxo-N-[(2R)-1,1,1-trifluorobutan-2-yl]-1,4-dihydro-1,8-naphthyridine-3-carboxamide] | 0.105 µM | 100% | – |
| CCC(NC(=O)c1cn(-c2ncc(F)cc2F)c2nc(N3C[C@@H](O)[C@H](O)C3)ccc2c1=O)C(F)(F)C(F)(F)F (mixture of isomers) [Example 95, 1-(3,5-Difluoropyridin-2-yl)-7-[(3R,4R)-3,4-dihydroxypyrrolidin-1-yl]-4-oxo-N-[1,1,1,2,2-pentafluoropentan-3-yl]-1,4-dihydro-1,8-naphthyridine-3-carboxamide] | 0.026 µM | 100% | – |
| CC1(C)C(=O)N(c2ccc3c(=O)c(C(=O)N[C@H](C4CC4)C(F)(F)F)cn(-c4ncc(F)cc4F)c3n2)C2(CC2)C1O (stereo partly shown) [Example 32] | 0.4 µM | 89.5% | – |
| O=C(NC(c1cccc(F)c1)C(F)(F)F)c1cn(-c2ncc(F)cc2F)c2nc(N3C[C@@H](O)CC3=O)ccc2c1=O (stereo partly drawn) [Example 10, 1-(3,5-Difluoropyridin-2-yl)-7-[(4S)-4-hydroxy-2-oxopyrrolidin-1-yl]-4-oxo-N-[2,2,2-trifluoro-1-(3-fluorophenyl)ethyl]-1,4-dihydro-1,8-naphthyridine-3-carboxamide] | 0.025 µM | 95.5% | – |
| CC(C)(C)[C@H](NC(=O)c1cn(-c2ncc(F)cc2F)c2nc(N3C[C@@H](O)[C@H](O)C3)ccc2c1=O)C(F)(F)F [Example 99, 1-(3,5-Difluoropyridin-2-yl)-7-[(3R,4R)-3,4-dihydroxypyrrolidin-1-yl]-4-oxo-N-[(2S)-1,1,1-trifluoro-3,3-dimethylbutan-2-yl]-1,4-dihydro-1,8-naphthyridine-3-carboxamide] | 0.038 µM | 100% | – |
| O=C(NC(C(F)(F)F)C(F)(F)F)c1cn(-c2ncc(F)cc2F)c2nc(N3CC4CC4(O)C3)ccc2c1=O (single isomer, unassigned) [Example 59, 1-(3,5-Difluoropyridin-2-yl)-N-(1,1,1,3,3,3-hexafluoropropan-2-yl)-7-[1-hydroxy-3-azabicyclo[3.1.0]hex-3-yl]-4-oxo-1,4-dihydro-1,8-naphthyridine-3-carboxamide] | 0.023 µM | – | 99.00% |
| CCC(NC(=O)c1cn(-c2ncc(F)cc2F)c2nc(N3CCNC3=O)ccc2c1=O)C(F)(F)C(F)(F)F (racemic) [Example 164, 1-(3,5-Difluoropyridin-2-yl)-4-oxo-7-(2-oxoimidazolidin-1-yl)-N-[1,1,1,2,2-pentafluoropentan-3-yl]-1,4-dihydro-1,8-naphthyridine-3-carboxamide] | 0.014 µM | 100% | – |
| CC(C)(C)[C@H](NC(=O)c1cn(-c2ncc(F)cc2F)c2nc(N3CCCN(CCO)C3=O)ccc2c1=O)C(F)(F)F [Example 125, 1-(3,5-Difluoropyridin-2-yl)-7-[3-(2-hydroxyethyl)-2-oxotetrahydropyrimidin-1(2H)-yl]-4-oxo-N-[(2S)-1,1,1-trifluoro-3,3-dimethylbutan-2-yl]-1,4-dihydro-1,8-naphthyridine-3-carboxamide] | 0.073 µM | 97% | – |
| O=C(NC(c1ccc(F)cc1)C(F)(F)F)c1cn(-c2ncc(F)cc2F)c2nc(N3C[C@@H](O)CC3=O)ccc2c1=O (mixture of isomers) [Example 11, 1-(3,5-Difluoropyridin-2-yl)-7-[(4S)-4-hydroxy-2-oxopyrrolidin-1-yl]-4-oxo-N-[2,2,2-trifluoro-1-(4-fluorophenyl)ethyl]-1,4-dihydro-1,8-naphthyridine-3-carboxamide] | 0.037 µM | 99.5% | – |
| C[C@@H]1CN(c2ccc3c(=O)c(C(=O)N[C@@H](C4CC4)C(F)(F)F)cn(-c4ncc(F)cc4F)c3n2)C(=O)N1 [Example 142, N-[(1S)-1-cyclopropyl-2,2,2-trifluoroethyl]-1-(3,5-difluoropyridin-2-yl)-7-[(4R)-4-methyl-2-oxoimidazolidin-1-yl]-4-oxo-1,4-dihydro-1,8-naphthyridine-3-carboxamide] | 0.047 µM | 94.5% | – |
| CC[C@H](NC(=O)c1cn(-c2ncc(F)cc2F)c2nc(N3CCN(CCO)C3=O)ccc2c1=O)C(F)(F)F [Example 119, 1-(3,5-Difluoropyridin-2-yl)-7-[3-(2-hydroxyethyl)-2-oxoimidazolidin-1-yl]-4-oxo-N-[(2S)-1,1,1-trifluorobutan-2-yl]-1,4-dihydro-1,8-naphthyridine-3-carboxamide] | 0.79 µM | 92% | – |
| CC[C@H](NC(=O)c1cn(-c2c(F)cncc2F)c2nc(N3CCNC3=O)ccc2c1=O)C(F)(F)F [Example 128, 1-(3,5-Difluoropyridin-4-yl)-4-oxo-7-(2-oxoimidazolidin-1-yl)-N-[(2S)-1,1,1-trifluorobutan-2-yl]-1,4-dihydro-1,8-naphthyridine-3-carboxamide] | 0.52 µM | 89% | – |
| CC[C@H](NC(=O)c1cn(-c2ncc(F)cc2F)c2nc(N3CC(F)C3)ccc2c1=O)C(F)(F)F [Example 132, 1-(3,5-Difluoropyridin-2-yl)-7-(3-fluoroazetidin-1-yl)-4-oxo-N-[(2S)-1,1,1-trifluorobutan-2-yl]-1,4-dihydro-1,8-naphthyridine-3-carboxamide] | 0.325 µM | 98% | – |
| O=C(NC(C1CC1)C(F)(F)F)c1cn(-c2ncc(F)cc2F)c2nc(N3CC[C@@H](O)C3=O)ccc2c1=O (stereo partly drawn) [Example 26, N-[1-Cyclopropyl-2,2,2-trifluoroethyl]-1-(3,5-difluoropyridin-2-yl)-7-[(3R)-3-hydroxy-2-oxopyrrolidin-1-yl]-4-oxo-1,4-dihydro-1,8-naphthyridine-3-carboxamide] | 0.2 µM | 94.5% | – |
| CC[C@@H](NC(=O)c1cn(-c2ncc(F)cc2F)c2nc(N3C[C@@H](O)[C@H](O)C3)ccc2c1=O)C(F)(F)F [Example 42, 1-(3,5-Difluoropyridin-2-yl)-7-[(3R,4R)-3,4-dihydroxypyrrolidin-1-yl]-4-oxo-N-[(2R)-1,1,1-trifluorobutan-2-yl]-1,4-dihydro-1,8-naphthyridine-3-carboxamide] | 0.295 µM | 100% | – |
| CC(NC(=O)c1cn(-c2ncc(F)cc2F)c2nc(N3C[C@@H](O)[C@H](O)C3)ccc2c1=O)(C1CC1)C(F)(F)F (stereo partly shown) [Example 153] | 0.2 µM | 100% | – |
| O=C(NC(C(F)(F)F)C(F)(F)F)c1cn(-c2ncc(F)cc2F)c2nc(N3CC4CC4(O)C3)ccc2c1=O (racemic) [Example 57, 1-(3,5-Difluoropyridin-2-yl)-N-(1,1,1,3,3,3-hexafluoropropan-2-yl)-7-[1-hydroxy-3-azabicyclo[3.1.0]hex-3-yl]-4-oxo-1,4-dihydro-1,8-naphthyridine-3-carboxamide] | 0.01 µM | 94% | – |
| O=C(N[C@H](C1CC1)C(F)(F)F)c1cn(-c2ncc(F)cc2Cl)c2nc(N3C[C@@H](O)[C@@H](O)C3)ccc2c1=O [Example 50, 1-(3-Chloro-5-fluoropyridin-2-yl)-N-[(1R)-1-cyclopropyl-2,2,2-trifluoroethyl]-7-[(3R,4S)-3,4-dihydroxypyrrolidin-1-yl]-4-oxo-1,4-dihydro-1,8-naphthyridine-3-carboxamide] | 0.73 µM | 92% | – |
| CC[C@H](NC(=O)c1cn(-c2c(F)cncc2F)c2nc(N3C[C@@H](O)CC3=O)ccc2c1=O)C(F)(F)F [Example 24, 1-(3,5-Difluoropyridin-4-yl)-7-[(4S)-4-hydroxy-2-oxopyrrolidin-1-yl]-4-oxo-N-[(2S)-1,1,1-trifluorobutan-2-yl]-1,4-dihydro-1,8-naphthyridine-3-carboxamide] | 0.56 µM | 87% | – |
| O=C(N[C@@H](C1CC1)C(F)(F)F)c1cn(-c2ncc(F)cc2F)c2nc(N3CCN(CCO)C3=O)ccc2c1=O [Example 167, N-[(1S)-1-Cyclopropyl-2,2,2-trifluoroethyl]-1-(3,5-difluoropyridin-2-yl)-7-[3-(2-hydroxyethyl)-2-oxoimidazolidin-1-yl]-4-oxo-1,4-dihydro-1,8-naphthyridine-3-carboxamide] | 0.42 µM | 92% | – |
| CC(NC(=O)c1cn(-c2ncc(F)cc2F)c2nc(N3CCC(CO)(CO)CC3)ccc2c1=O)C(F)(F)C(F)(F)F (single isomer, unassigned) [Example 185, 7-[4,4-Bis(hydroxymethyl)piperidin-1-yl]-1-(3,5-difluoropyridin-2-yl)-4-oxo-N-[3,3,4,4,4-pentafluorobutan-2-yl]-1,4-dihydro-1,8-naphthyridine-3-carboxamide] | 0.121 µM | 100% | – |
